Results: patent US10376520B2, “Methods for the treatment of cardiovascular disorders” (Galapagos NV, priority 2015, dated 2019)

Test system: RA patients
Assay: [HDL] determination, Study 1 (RA patients, add-on to MTX)
Type: in vivo, human
Description: Double-blind, placebo-controlled add on study in subjects with moderately to severely active RA who have an inadequate response to methotrexate (MTX) (oral or parenteral).
595 subjects randomized to one of 6 dose regimens of Compound 1 (dosed as a [Compound 1:HCl:3H2O]) (3 dose levels administered either once or twice daily) or placebo on top of each subject's stable dose of MTX.
Compound 1 (dosed as a [Compound 1:HCl:3H2O]) is dosed for twelve weeks once daily (q.d.) (50 mg, 100 mg or 200 mg) or twice daily (b.i.d.) (25 mg, 50 mg or 100 mg); or placebo.
At Week 12, the subjects on placebo who have not achieved 20% improvement in swollen joint count (SJC66) and tender joint count (TJC68) are re-randomized automatically to receive Compound 1 (dosed as a [Compound 1:HCl:3H2O]) either at 100 mg q.d. or 50 mg b.i.d. doses in a blinded fashion; subjects on 50 mg q.d. who have not achieved 20% improvement in SJC66 and TJC68 will be assigned to 100 mg q.d. and subjects on 25 mg b.i.d. that have not achieved a 20% improvement in SJC66 and TJC68 will be assigned to 50 mg b.i.d. Subjects who switch treatment at week 12 are handled as if they discontinued at week 12 for the purpose of statistical analysis, whereas subjects in the other groups will maintain their randomized treatment until Week 24.
This assay relies on a homogeneous enzymatic colorimetric test. In the presence of magnesium ions, dextran sulfate selectively forms water-soluble complexes with LDL, VLDL and chylomicrons which are resistant to PEG-modified enzymes.
The cholesterol concentration of [HDL]-cholesterol is determined enzymatically by cholesterol esterase and cholesterol oxidase coupled with PEG to the amino groups (approx. 40%).
In the presence of peroxidase, the hydrogen peroxide generated reacts with 4-amino-antipyrine and Sodium N-(2-hydroxy-3-sulfopropyl)-3,5-dimethoxyaniline (HSDA) to form a purple-blue dye. The color intensity of this dye is directly proportional to the cholesterol concentration and is measured photometrically.
Human serum and plasma samples [HDL] determination was done on a Roche/Hitachi Cobas c 701/702 system which automatically calculate the analyte concentration of each sample. Samples containing precipitates are centrifuged before performing the assay.

[1] = 2 x 50 mg b.i.d. (N = 85), week 12
[2] = 2 x 100 mg b.i.d. (N = 84), week 1
[3] = 2 x 100 mg b.i.d. (N = 84), week 2
[4] = 2 x 100 mg b.i.d. (N = 84), week 4
[5] = 2 x 100 mg b.i.d. (N = 84), week 8
[6] = 2 x 100 mg b.i.d. (N = 84), week 12
[7] = continued 25 mg b.i.d (N = 69), week 1
[8] = continued 25 mg b.i.d (N = 69), week 2
[9] = continued 25 mg b.i.d (N = 69), week 4
[10] = continued 25 mg b.i.d (N = 69), week 8
[11] = continued 25 mg b.i.d (N = 69), week 12
[12] = continued 25 mg b.i.d (N = 69), week 16
[13] = continued 25 mg b.i.d (N = 69), week 20
[14] = continued 25 mg b.i.d (N = 69), week 24
[15] = continued 50 mg b.i.d. (N = 85), week 1
[16] = continued 50 mg b.i.d. (N = 85), week 2
[17] = continued 50 mg b.i.d. (N = 85), week 4
[18] = continued 50 mg b.i.d. (N = 85), week 8
[19] = continued 50 mg b.i.d. (N = 85), week 12
[20] = continued 50 mg b.i.d. (N = 85), week 16
[21] = continued 50 mg b.i.d. (N = 85), week 20
[22] = continued 50 mg b.i.d. (N = 85), week 24
[23] = continued 50 mg q.d. (N = 63), week 1
[24] = continued 50 mg q.d. (N = 63), week 2

## O=C(Nc1nc2cccc(-c3ccc(CN4CCS(=O)(=O)CC4)cc3)n2n1)C1CC1 [Compound 1, cyclopropanecarboxylic acid {5-[4-(1,1-dioxo-thiomorpholin-4-ylmethyl)-phenyl]-[1,2,4]triazolo[1,5-a]pyridin-2yl}-amide]
[1]
  [HDL] Mean CFB - 12 weeks results: 0.10 mmol/L
  [HDL] Mean percentage CFB - 12 weeks results: 9%
  [HDL] Median CFB - 12 weeks results: 0.10 mmol/L
[2]
  [HDL] Mean CFB - 12 weeks results: 0.12 mmol/L
  [HDL] Mean percentage CFB - 12 weeks results: 9%
  [HDL] Median CFB - 12 weeks results: 0.10 mmol/L
[3]
  [HDL] Mean CFB - 12 weeks results: 0.20 mmol/L
  [HDL] Mean percentage CFB - 12 weeks results: 15%
  [HDL] Median CFB - 12 weeks results: 0.18 mmol/L
[4]
  [HDL] Mean CFB - 12 weeks results: 0.25 mmol/L
  [HDL] Mean percentage CFB - 12 weeks results: 20%
  [HDL] Median CFB - 12 weeks results: 0.25 mmol/L
[5]
  [HDL] Mean CFB - 12 weeks results: 0.26 mmol/L
  [HDL] Mean percentage CFB - 12 weeks results: 21%
  [HDL] Median CFB - 12 weeks results: 0.25 mmol/L
[6]
  [HDL] Mean CFB - 12 weeks results: 0.30 mmol/L
  [HDL] Mean percentage CFB - 12 weeks results: 23%
  [HDL] Median CFB - 12 weeks results: 0.25 mmol/L
[7]
  [HDL] Mean CFB - 24 weeks results: 0.01 mmol/L
  [HDL] Mean percentage CFB - 24 weeks results: 0.74%
  [HDL] Median CFB - 24 weeks results: 0.00 mmol/L
[8]
  [HDL] Mean CFB - 24 weeks results: 0.05 mmol/L
  [HDL] Mean percentage CFB - 24 weeks results: 3.77%
  [HDL] Median CFB - 24 weeks results: 0.05 mmol/L
[9]
  [HDL] Mean CFB - 24 weeks results: 0.07 mmol/L
  [HDL] Mean percentage CFB - 24 weeks results: 5.04%
  [HDL] Median CFB - 24 weeks results: 0.08 mmol/L
[10]
  [HDL] Mean CFB - 24 weeks results: 0.08 mmol/L
  [HDL] Mean percentage CFB - 24 weeks results: 6.08%
  [HDL] Median CFB - 24 weeks results: 0.10 mmol/L
[11]
  [HDL] Mean CFB - 24 weeks results: 0.07 mmol/L
  [HDL] Mean percentage CFB - 24 weeks results: 5.78%
  [HDL] Median CFB - 24 weeks results: 0.05 mmol/L
[12]
  [HDL] Mean CFB - 24 weeks results: 0.08 mmol/L
  [HDL] Mean percentage CFB - 24 weeks results: 6.74%
  [HDL] Median CFB - 24 weeks results: 0.05 mmol/L
[13]
  [HDL] Mean CFB - 24 weeks results: 0.05 mmol/L
  [HDL] Mean percentage CFB - 24 weeks results: 5.08%
  [HDL] Median CFB - 24 weeks results: 0.07 mmol/L
[14]
  [HDL] Mean CFB - 24 weeks results: 0.08 mmol/L
  [HDL] Mean percentage CFB - 24 weeks results: 6.59%
  [HDL] Median CFB - 24 weeks results: 0.09 mmol/L
[15]
  [HDL] Mean CFB - 24 weeks results: 0.03 mmol/L
  [HDL] Mean percentage CFB - 24 weeks results: 4.29%
  [HDL] Median CFB - 24 weeks results: 0.05 mmol/L
[16]
  [HDL] Mean CFB - 24 weeks results: 0.12 mmol/L
  [HDL] Mean percentage CFB - 24 weeks results: 9.99%
  [HDL] Median CFB - 24 weeks results: 0.10 mmol/L
[17]
  [HDL] Mean CFB - 24 weeks results: 0.13 mmol/L
  [HDL] Mean percentage CFB - 24 weeks results: 11.50%
  [HDL] Median CFB - 24 weeks results: 0.13 mmol/L
[18]
  [HDL] Mean CFB - 24 weeks results: 0.13 mmol/L
  [HDL] Mean percentage CFB - 24 weeks results: 11.21%
  [HDL] Median CFB - 24 weeks results: 0.14 mmol/L
[19]
  [HDL] Mean CFB - 24 weeks results: 0.10 mmol/L
  [HDL] Mean percentage CFB - 24 weeks results: 9.27%
  [HDL] Median CFB - 24 weeks results: 0.10 mmol/L
[20]
  [HDL] Mean CFB - 24 weeks results: 0.13 mmol/L
  [HDL] Mean percentage CFB - 24 weeks results: 11.13%
  [HDL] Median CFB - 24 weeks results: 0.15 mmol/L
[21]
  [HDL] Mean CFB - 24 weeks results: 0.15 mmol/L
  [HDL] Mean percentage CFB - 24 weeks results: 12.24%
  [HDL] Median CFB - 24 weeks results: 0.16 mmol/L
[22]
  [HDL] Mean CFB - 24 weeks results: 0.11 mmol/L
  [HDL] Mean percentage CFB - 24 weeks results: 10.05%
  [HDL] Median CFB - 24 weeks results: 0.12 mmol/L
[23]
  [HDL] Mean CFB - 24 weeks results: 0.02 mmol/L
  [HDL] Mean percentage CFB - 24 weeks results: 1.75%
  [HDL] Median CFB - 24 weeks results: 0.01 mmol/L
[24]
  [HDL] Mean CFB - 24 weeks results: 0.07 mmol/L
  [HDL] Mean percentage CFB - 24 weeks results: 4.74%
  [HDL] Median CFB - 24 weeks results: 0.08 mmol/L
Continued 50 mg q.d. (N = 63), week 4
  [HDL] Mean CFB - 24 weeks results: 0.06 mmol/L
